Experimental data from patent US12410133B2, “Crystalline (r)-5-carbamoylpyridin-3-yl-2-methyl-4-(3-(trifluoromethoxy)benzyl)piperazine-1-carboxylate, compositions and methods of use thereof” (Celgene Corporation, priority 2018, dated 2025).
Converted amounts (≈) assume the structure as drawn. Marks after values point to notes of the source that are not given here.

Assays:
[1] = Solubility of Form A in physiologically relevant media (37° C.); assay type: physicochemical; conditions: thermodynamic from solid
[2] = Accelerated solid-state stability study of Form A; assay type: physicochemical
Procedure: Solid-state stability evaluation (accelerated conditions) was performed on Form A under conditions of 25° C./60% RH and 40° C./75% RH. The detailed procedure utilized for stability evaluation is listed below:
1) weigh approximately 30 mg of Form A sample into each 3-mL vial;
2) cover the vial with Parafilm® and poke 15 holes on the Parafilm® with a needle;
3) put the vial in a stability chamber of 25° C./60% RH or 40° C./75% RH; and
4) sample for XRPD, TGA, DSC, HPLC purity and assay tests after 2, 4 and 6 weeks and 3 months.

## C[C@@H]1CN(Cc2cccc(OC(F)(F)F)c2)CCN1C(=O)Oc1cncc(C(N)=O)c1 [Form A, (R)-5-carbamoylpyridin-3-yl-2-methyl-4-(3-(trifluoromethoxy)benzyl)piperazine-1-carboxylate]
[1]; simulated gastric fluid, pH 2 (0.01N HCl), final measured pH 3.55
  solubility: 3860 µg/mL (≈ 8800 µM)
[1]; FaSSIF, final measured pH 6.48
  solubility: 146 µg/mL (≈ 333 µM)
[1]; FeSSIF, final measured pH 5.17
  solubility: 1020 µg/mL (≈ 2320 µM)
[2]; 2 weeks, 25° C./60% RH
  API (RRT 1.00): 99.84 % Area
  Assay vs. 5° C. control: 101.2%
  Crystal form: Form A
  HPLC Purity: 99.84 area %
  Imp.1 (RRT 0.81): 0.07 % Area
  Imp.2 (RRT 1.04): — (—: <0.05.)
  Imp.3 (RRT 1.74): 0.09 % Area
[2]; 2 weeks, 40° C./75% RH
  API (RRT 1.00): 99.78 % Area
  Assay vs. 5° C. control: 98.1%
  Crystal form: Form A
  HPLC Purity: 99.78 area %
  Imp.1 (RRT 0.81): 0.08 % Area
  Imp.2 (RRT 1.04): 0.07 % Area
  Imp.3 (RRT 1.74): 0.07 % Area
[2]; 3 months, 25° C./60% RH
  API (RRT 1.00): 99.86 % Area
  Assay vs. 5° C. control: 97.3%
  Chiral Purity: 100
  Crystal form: Form A
  HPLC Purity: 99.86 area %
  Imp.1 (RRT 0.81): 0.09 % Area
  Imp.3 (RRT 1.74): 0.05 % Area
[2]; 3 months, 40° C./75% RH
  API (RRT 1.00): 99.86 % Area
  Assay vs. 5° C. control: 96.9%
  Chiral Purity: 100
  Crystal form: Form A
  HPLC Purity: 99.86 area %
  Imp.1 (RRT 0.81): 0.09 % Area
  Imp.3 (RRT 1.74): 0.05 % Area
[2]; 4 weeks, 25° C./60% RH
  API (RRT 1.00): 99.86 % Area
  Assay vs. 5° C. control: 101.4%
  Crystal form: Form A
  HPLC Purity: 99.86 area %
  Imp.1 (RRT 0.81): 0.07 % Area
  Imp.2 (RRT 1.04): — (—: <0.05.)
  Imp.3 (RRT 1.74): 0.07 % Area
[2]; 4 weeks, 40° C./75% RH
  API (RRT 1.00): 99.86 % Area
  Assay vs. 5° C. control: 101.3%
  Crystal form: Form A
  HPLC Purity: 99.86 area %
  Imp.1 (RRT 0.81): 0.07 % Area
  Imp.2 (RRT 1.04): — (—: <0.05.)
  Imp.3 (RRT 1.74): 0.07 % Area
[2]; 6 weeks, 25° C./60% RH
  API (RRT 1.00): 99.86 % Area
  Assay vs. 5° C. control: 99.7%
  Crystal form: Form A
  HPLC Purity: 99.86 area %
  Imp.1 (RRT 0.81): 0.07 % Area
  Imp.2 (RRT 1.04): — (—: <0.05.)
  Imp.3 (RRT 1.74): 0.07 % Area
[2]; 6 weeks, 40° C./75% RH
  API (RRT 1.00): 99.86 % Area
  Assay vs. 5° C. control: 99.2%
  Crystal form: Form A
  HPLC Purity: 99.86 area %
  Imp.1 (RRT 0.81): 0.07 % Area
  Imp.2 (RRT 1.04): — (—: <0.05.)
  Imp.3 (RRT 1.74): 0.07 % Area
[2]; 25° C./60% RH and 40° C./75% RH for 3 months
  Physical and chemical stability under accelerated conditions: good physical and chemical stability
[2]; Initial
  API (RRT 1.00): 99.86 % Area
  Crystal form: Form A
  HPLC Purity: 99.86 area %
  Imp.1 (RRT 0.81): 0.09 % Area
  Imp.2 (RRT 1.04): — (—: <0.05.)
  Imp.3 (RRT 1.74): 0.05 % Area
[2]; Initial, starting material after stored at −20° C. for about 3 months
  Chiral Purity: 100*
[2]; after 3 months at both conditions (25° C./60% RH and 40° C./75% RH)
  Form change or HPLC purity decrease: no significant form change or HPLC purity decrease was observed
